Results published in ChEMBL document CHEMBL4627311, “Discovery of 4-((1-(1H-imidazol-2-yl)alkoxy)methyl)pyridines as a new class of Trypanosoma cruzi growth inhibitors” (Bioorg Med Chem Lett, 2020).

Key:
[1] = biological target: Sterol 14-alpha demethylase (Trypanosoma cruzi (strain CL Brener), UniProt Q7Z1V1); experiment: Inhibition of Trypanosoma cruzi CYP51
[2] = test system: Trypanosoma cruzi; experiment: Antitrypanosomal activity against Trypanosoma cruzi; format: functional, organism-based

Sterol 14-alpha demethylase, sequence (Q7Z1V1 whole entry): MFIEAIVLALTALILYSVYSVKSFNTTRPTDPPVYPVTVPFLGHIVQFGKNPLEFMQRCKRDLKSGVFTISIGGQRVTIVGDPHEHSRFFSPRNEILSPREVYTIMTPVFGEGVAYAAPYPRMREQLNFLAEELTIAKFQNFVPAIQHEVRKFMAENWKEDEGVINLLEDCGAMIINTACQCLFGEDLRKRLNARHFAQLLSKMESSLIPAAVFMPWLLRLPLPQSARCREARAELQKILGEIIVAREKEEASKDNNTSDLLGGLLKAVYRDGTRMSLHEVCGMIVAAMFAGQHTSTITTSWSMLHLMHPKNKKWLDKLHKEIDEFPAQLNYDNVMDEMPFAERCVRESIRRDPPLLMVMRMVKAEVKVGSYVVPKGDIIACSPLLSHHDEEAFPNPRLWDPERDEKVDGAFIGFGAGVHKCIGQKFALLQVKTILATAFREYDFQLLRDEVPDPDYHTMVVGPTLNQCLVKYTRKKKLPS

IC50 [1] | EC50 [2] | SMILES
2900 nM |  | CCC(=O)CCCCCC(Oc1ccc2ccccc2c1)c1ncc(Cc2ccccc2)[nH]1 (centres undefined)
77 nM |  | CC(OCc1ccncc1)c1ncc(-c2ccc3ccccc3c2)[nH]1 (centres undefined)
 | 2000 nM | CCC(=O)CCCCCC(Oc1cc2ccccc2nc1OC)c1ncc(Cc2ccncc2)[nH]1 (centres undefined)
53 nM |  | CCC(=O)CCCCCC(OCc1ccncc1)c1ncc(-c2ccc3ccccc3c2)o1 (centres undefined)
52 nM |  | CCC(=O)CCCCCC(Oc1ccc2ccccc2c1)c1ncc(Cc2ccncc2)[nH]1 (stereo in doubt; 11)
41 nM |  | CCC(=O)CCCCCC(Oc1ccc2ccccc2c1)c1ncc(Cc2ccncc2)[nH]1 (stereo in doubt; 34)
34 nM |  | CCC(=O)CCCCCC(Oc1ccc2ccccc2c1)c1ncc(Cc2ccncc2)[nH]1 (stereo in doubt; 35)
 | 2000 nM | O=C(Cn1ccnc1[N+](=O)[O-])NCc1ccccc1 [BENZNIDAZOLE]
 | 8000 nM | CC1CS(=O)(=O)CCN1/N=C/c1ccc([N+](=O)[O-])o1 (centres undefined) [NIFURTIMOX]
